Measurements as given in PubChem BioAssay (NCI).
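Each compound was tested at five concentrations against cells in 96-well plates for 48 hours. At the TGI there is no net growth.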

Legend:
Assay in all cases: inhibition of tumour cell growth, NCI panel, 48 h
MDA-MB-435 = system: MDA-MB-435
HOP-92 NSCLC = system: HOP-92 NSCLC
SF-295 CNS = system: SF-295 CNS
SK-MEL-28 melanoma = system: SK-MEL-28 melanoma
ACHN renal = system: ACHN renal
SK-OV-3 ovarian = system: SK-OV-3 ovarian
OVCAR-4 ovarian = system: OVCAR-4 ovarian
CAKI-1 renal = system: CAKI-1 renal
HL-60(TB) leukemia = system: HL-60(TB) leukemia
MCF7 breast = system: MCF7 breast
UO-31 renal = system: UO-31 renal
HCT-116 colon = system: HCT-116 colon
NCI-H460 lung = system: NCI-H460 lung
MALME-3M melanoma = system: MALME-3M melanoma
NCI/ADR-RES ovarian = system: NCI/ADR-RES ovarian
HCT-15 colon = system: HCT-15 colon
U251 CNS = system: U251 CNS
DU-145 prostate = system: DU-145 prostate
SF-539 CNS = system: SF-539 CNS
NCI-H23 lung = system: NCI-H23 lung
OVCAR-5 ovarian = system: OVCAR-5 ovarian
M14 melanoma = system: M14 melanoma
OVCAR-8 ovarian = system: OVCAR-8 ovarian
SK-MEL-5 melanoma = system: SK-MEL-5 melanoma
SK-MEL-2 melanoma = system: SK-MEL-2 melanoma
NCI-H522 lung = system: NCI-H522 lung
HS 578T breast = system: HS 578T breast
RPMI-8226 leukemia = system: RPMI-8226 leukemia
COLO 205 colon = system: COLO 205 colon
BT-549 breast = system: BT-549 breast
HT29 colon = system: HT29 colon
LOX IMVI melanoma = system: LOX IMVI melanoma
MDA-N = system: MDA-N
RXF 393 renal = system: RXF 393 renal
HCC-2998 colon = system: HCC-2998 colon
MOLT-4 leukemia = system: MOLT-4 leukemia
A549 NSCLC = system: A549 NSCLC
MDA-MB-231 breast = system: MDA-MB-231 breast
TK-10 renal = system: TK-10 renal
KM12 colon = system: KM12 colon
CCRF-CEM leukemia = system: CCRF-CEM leukemia
SF-268 CNS = system: SF-268 CNS
UACC-62 melanoma = system: UACC-62 melanoma
IGROV1 ovarian = system: IGROV1 ovarian
A498 renal = system: A498 renal
EKVX NSCLC = system: EKVX NSCLC
T-47D breast = system: T-47D breast
SNB-19 CNS = system: SNB-19 CNS
HOP-62 NSCLC = system: HOP-62 NSCLC
UACC-257 melanoma = system: UACC-257 melanoma
OVCAR-3 ovarian = system: OVCAR-3 ovarian
SW-620 colon = system: SW-620 colon
PC-3 prostate = system: PC-3 prostate
K-562 leukemia = system: K-562 leukemia
NCI-H226 lung = system: NCI-H226 lung
SR leukemia = system: SR leukemia
SN12C renal = system: SN12C renal
786-0 renal = system: 786-0 renal
SNB-75 CNS = system: SNB-75 CNS

## CC(=O)ON1C(=O)c2cccc3cccc(c23)C1=O
MDA-MB-435
  TGI: 39.8 µM
HOP-92 NSCLC
  TGI: > 100 µM
SF-295 CNS
  TGI: > 100 µM
SK-MEL-28 melanoma
  TGI: 44.6 µM
ACHN renal
  TGI: > 100 µM
SK-OV-3 ovarian
  TGI: > 100 µM
OVCAR-4 ovarian
  TGI: 40.7 µM
CAKI-1 renal
  TGI: 49 µM
HL-60(TB) leukemia
  TGI: 45.5 µM
MCF7 breast
  TGI: > 100 µM
UO-31 renal
  TGI: > 100 µM
HCT-116 colon
  TGI: 41.7 µM
NCI-H460 lung
  TGI: 41.7 µM
MALME-3M melanoma
  TGI: 45 µM
NCI/ADR-RES ovarian
  TGI: > 100 µM
HCT-15 colon
  TGI: > 100 µM
U251 CNS
  TGI: > 100 µM
DU-145 prostate
  TGI: 40.2 µM
SF-539 CNS
  TGI: 48.3 µM
NCI-H23 lung
  TGI: 50 µM
OVCAR-5 ovarian
  TGI: > 100 µM
M14 melanoma
  TGI: 90.9 µM
OVCAR-8 ovarian
  TGI: > 100 µM
SK-MEL-5 melanoma
  TGI: 28.2 µM
SK-MEL-2 melanoma
  TGI: 67.6 µM
NCI-H522 lung
  TGI: 43.6 µM
HS 578T breast
  TGI: 79.3 µM
RPMI-8226 leukemia
  TGI: 53.4 µM
COLO 205 colon
  TGI: 86.7 µM
BT-549 breast
  TGI: 74.5 µM
HT29 colon
  TGI: > 100 µM
LOX IMVI melanoma
  TGI: 57.3 µM
MDA-N
  TGI: 93.3 µM
RXF 393 renal
  TGI: 25.5 µM
HCC-2998 colon
  TGI: > 100 µM
MOLT-4 leukemia
  TGI: 43 µM
A549 NSCLC
  TGI: > 100 µM
MDA-MB-231 breast
  TGI: > 100 µM
TK-10 renal
  TGI: 88.5 µM
KM12 colon
  TGI: > 100 µM
CCRF-CEM leukemia
  TGI: > 100 µM
SF-268 CNS
  TGI: > 100 µM
UACC-62 melanoma
  TGI: 52.5 µM
IGROV1 ovarian
  TGI: > 100 µM
A498 renal
  TGI: 71.5 µM
EKVX NSCLC
  TGI: > 100 µM
T-47D breast
  TGI: 63.8 µM
SNB-19 CNS
  TGI: > 100 µM
HOP-62 NSCLC
  TGI: 85.4 µM
UACC-257 melanoma
  TGI: 67 µM
OVCAR-3 ovarian
  TGI: 68.9 µM
SW-620 colon
  TGI: > 100 µM
PC-3 prostate
  TGI: > 100 µM
K-562 leukemia
  TGI: > 100 µM

## C=C1C(=O)OC2CC(=C)C3CC=C(C)C3CC12 (stereo not given)
MDA-MB-435
  TGI: 32.6 µM
HOP-92 NSCLC
  TGI: 28.7 µM
SF-295 CNS
  TGI: > 100 µM
SK-MEL-28 melanoma
  TGI: 77.3 µM
ACHN renal
  TGI: 47.8 µM
SK-OV-3 ovarian
  TGI: 80 µM
OVCAR-4 ovarian
  TGI: > 100 µM
CAKI-1 renal
  TGI: 28.2 µM
NCI-H226 lung
  TGI: 43 µM
HL-60(TB) leukemia
  TGI: 87.1 µM
MCF7 breast
  TGI: 55.3 µM
UO-31 renal
  TGI: 29.3 µM
HCT-116 colon
  TGI: 50.4 µM
NCI-H460 lung
  TGI: > 100 µM
NCI/ADR-RES ovarian
  TGI: > 100 µM
HCT-15 colon
  TGI: 36.7 µM
U251 CNS
  TGI: 29.6 µM
SF-539 CNS
  TGI: > 100 µM
OVCAR-5 ovarian
  TGI: > 100 µM
M14 melanoma
  TGI: 40.9 µM
OVCAR-8 ovarian
  TGI: > 100 µM
SK-MEL-5 melanoma
  TGI: > 100 µM
SK-MEL-2 melanoma
  TGI: 26.5 µM
NCI-H522 lung
  TGI: 36.2 µM
HS 578T breast
  TGI: > 100 µM
RPMI-8226 leukemia
  TGI: > 100 µM
COLO 205 colon
  TGI: 41.7 µM
BT-549 breast
  TGI: 59.7 µM
HT29 colon
  TGI: 28.5 µM
LOX IMVI melanoma
  TGI: 23.5 µM
MDA-N
  TGI: 30.6 µM
HCC-2998 colon
  TGI: 43.3 µM
MOLT-4 leukemia
  TGI: 46.8 µM
A549 NSCLC
  TGI: > 100 µM
SR leukemia
  TGI: 55.6 µM
MDA-MB-231 breast
  TGI: 63.7 µM
TK-10 renal
  TGI: 34.4 µM
KM12 colon
  TGI: > 100 µM
CCRF-CEM leukemia
  TGI: > 100 µM
SN12C renal
  TGI: 31.7 µM
SF-268 CNS
  TGI: > 100 µM
UACC-62 melanoma
  TGI: 25.3 µM
IGROV1 ovarian
  TGI: 55.5 µM
A498 renal
  TGI: > 100 µM
EKVX NSCLC
  TGI: > 100 µM
T-47D breast
  TGI: 37.1 µM
SNB-19 CNS
  TGI: 54.5 µM
HOP-62 NSCLC
  TGI: > 100 µM
UACC-257 melanoma
  TGI: 27.5 µM
OVCAR-3 ovarian
  TGI: 91.9 µM
SW-620 colon
  TGI: 32.4 µM
PC-3 prostate
  TGI: 28.4 µM
K-562 leukemia
  TGI: 24.4 µM
786-0 renal
  TGI: 31.3 µM

## O=[N+]([O-])C(=C1Nc2ccccc2N1)/C(Cl)=C(/Cl)N1CCOCC1
MDA-MB-435
  TGI: > 100 µM
SF-295 CNS
  TGI: > 100 µM
SK-MEL-28 melanoma
  TGI: > 100 µM
ACHN renal
  TGI: > 100 µM
SK-OV-3 ovarian
  TGI: > 100 µM
OVCAR-4 ovarian
  TGI: 61 µM
CAKI-1 renal
  TGI: > 100 µM
NCI-H226 lung
  TGI: > 100 µM
MCF7 breast
  TGI: > 100 µM
UO-31 renal
  TGI: > 100 µM
HCT-116 colon
  TGI: > 100 µM
NCI-H460 lung
  TGI: > 100 µM
MALME-3M melanoma
  TGI: > 100 µM
NCI/ADR-RES ovarian
  TGI: > 100 µM
HCT-15 colon
  TGI: > 100 µM
SNB-75 CNS
  TGI: > 100 µM
U251 CNS
  TGI: > 100 µM
SF-539 CNS
  TGI: > 100 µM
NCI-H23 lung
  TGI: > 100 µM
OVCAR-5 ovarian
  TGI: > 100 µM
M14 melanoma
  TGI: > 100 µM
OVCAR-8 ovarian
  TGI: > 100 µM
SK-MEL-2 melanoma
  TGI: > 100 µM
HS 578T breast
  TGI: > 100 µM
RPMI-8226 leukemia
  TGI: > 100 µM
COLO 205 colon
  TGI: > 100 µM
BT-549 breast
  TGI: > 100 µM
HT29 colon
  TGI: > 100 µM
MDA-N
  TGI: > 100 µM
HCC-2998 colon
  TGI: > 100 µM
MOLT-4 leukemia
  TGI: > 100 µM
A549 NSCLC
  TGI: > 100 µM
MDA-MB-231 breast
  TGI: > 100 µM
KM12 colon
  TGI: > 100 µM
CCRF-CEM leukemia
  TGI: > 100 µM
SN12C renal
  TGI: > 100 µM
SF-268 CNS
  TGI: 62.5 µM
UACC-62 melanoma
  TGI: > 100 µM
A498 renal
  TGI: > 100 µM
EKVX NSCLC
  TGI: > 100 µM
T-47D breast
  TGI: 51.2 µM
SNB-19 CNS
  TGI: > 100 µM
HOP-62 NSCLC
  TGI: > 100 µM
UACC-257 melanoma
  TGI: > 100 µM
OVCAR-3 ovarian
  TGI: 96.6 µM
SW-620 colon
  TGI: > 100 µM
PC-3 prostate
  TGI: > 100 µM
K-562 leukemia
  TGI: > 100 µM
786-0 renal
  TGI: > 100 µM

## Clc1ccc(-c2ccc(-c3nnc(COc4ccc(OCc5nnc(-c6ccc(-c7ccc(Cl)cc7Cl)o6)o5)c(Cl)c4)o3)o2)c(Cl)c1
MDA-MB-435
  TGI: > 100 µM
SF-295 CNS
  TGI: > 100 µM
SK-MEL-28 melanoma
  TGI: > 100 µM
ACHN renal
  TGI: > 100 µM
OVCAR-4 ovarian
  TGI: > 100 µM
CAKI-1 renal
  TGI: > 100 µM
NCI-H226 lung
  TGI: > 100 µM
HL-60(TB) leukemia
  TGI: > 100 µM
MCF7 breast
  TGI: > 100 µM
UO-31 renal
  TGI: > 100 µM
HCT-116 colon
  TGI: > 100 µM
NCI-H460 lung
  TGI: > 100 µM
NCI/ADR-RES ovarian
  TGI: > 100 µM
HCT-15 colon
  TGI: > 100 µM
U251 CNS
  TGI: > 100 µM
DU-145 prostate
  TGI: > 100 µM
NCI-H23 lung
  TGI: > 100 µM
OVCAR-5 ovarian
  TGI: > 100 µM
M14 melanoma
  TGI: > 100 µM
OVCAR-8 ovarian
  TGI: > 100 µM
SK-MEL-5 melanoma
  TGI: > 100 µM
SK-MEL-2 melanoma
  TGI: > 100 µM
NCI-H522 lung
  TGI: > 100 µM
HS 578T breast
  TGI: > 100 µM
RPMI-8226 leukemia
  TGI: > 100 µM
COLO 205 colon
  TGI: > 100 µM
BT-549 breast
  TGI: > 100 µM
HT29 colon
  TGI: > 100 µM
LOX IMVI melanoma
  TGI: > 100 µM
MDA-N
  TGI: > 100 µM
RXF 393 renal
  TGI: 73.2 µM
HCC-2998 colon
  TGI: > 100 µM
MOLT-4 leukemia
  TGI: 64.2 µM
A549 NSCLC
  TGI: > 100 µM
SR leukemia
  TGI: 74.8 µM
MDA-MB-231 breast
  TGI: > 100 µM
TK-10 renal
  TGI: > 100 µM
KM12 colon
  TGI: > 100 µM
CCRF-CEM leukemia
  TGI: 67.1 µM
SN12C renal
  TGI: > 100 µM
SF-268 CNS
  TGI: > 100 µM
UACC-62 melanoma
  TGI: > 100 µM
IGROV1 ovarian
  TGI: > 100 µM
A498 renal
  TGI: > 100 µM
EKVX NSCLC
  TGI: > 100 µM
T-47D breast
  TGI: > 100 µM
SNB-19 CNS
  TGI: > 100 µM
HOP-62 NSCLC
  TGI: > 100 µM
UACC-257 melanoma
  TGI: > 100 µM
OVCAR-3 ovarian
  TGI: > 100 µM
SW-620 colon
  TGI: > 100 µM
K-562 leukemia
  TGI: > 100 µM
786-0 renal
  TGI: > 100 µM
